From ChEMBL document CHEMBL3596146, “Design, synthesis, and biological evaluation of a series of alkoxy-3-indolylacetic acids as peroxisome proliferator-activated receptor γ/δ agonists” (Bioorg Med Chem, 2015)
Activity calls are given as the source filed them. The calls are words filed in the database; no cut-off is given here.

Legend:
[1] = target: T1, Peroxisome proliferator-activated receptor delta (Homo sapiens, UniProt Q03181); assay: Agonist activity at PPAR-delta (unknown origin) expressed in HEK293t cells co-transfected with tk-PPRE-luciferase vector after 24 hrs by transactivation assay; assay type: cell-based, HEK-293T
T1 sequence (Q03181 whole entry): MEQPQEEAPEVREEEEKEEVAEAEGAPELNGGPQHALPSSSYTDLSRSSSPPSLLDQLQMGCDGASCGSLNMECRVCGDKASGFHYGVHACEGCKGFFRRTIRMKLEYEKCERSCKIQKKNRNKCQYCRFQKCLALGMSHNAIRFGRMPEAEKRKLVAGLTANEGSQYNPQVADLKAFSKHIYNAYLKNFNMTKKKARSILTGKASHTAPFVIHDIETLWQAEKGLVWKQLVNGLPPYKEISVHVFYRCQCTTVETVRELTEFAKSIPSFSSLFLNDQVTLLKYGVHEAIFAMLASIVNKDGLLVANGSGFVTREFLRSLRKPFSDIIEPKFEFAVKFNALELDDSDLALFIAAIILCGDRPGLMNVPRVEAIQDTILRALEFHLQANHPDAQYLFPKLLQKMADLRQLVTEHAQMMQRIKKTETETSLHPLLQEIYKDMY

[2] = target: T2, Peroxisome proliferator-activated receptor alpha (Homo sapiens, UniProt Q07869); assay: Agonist activity at PPAR-alpha (unknown origin) expressed in CV-1 cells co-transfected with tk-PPRE-luciferase vector after 24 hrs by transactivation assay; assay type: cell-based
T2 sequence (Q07869 whole entry): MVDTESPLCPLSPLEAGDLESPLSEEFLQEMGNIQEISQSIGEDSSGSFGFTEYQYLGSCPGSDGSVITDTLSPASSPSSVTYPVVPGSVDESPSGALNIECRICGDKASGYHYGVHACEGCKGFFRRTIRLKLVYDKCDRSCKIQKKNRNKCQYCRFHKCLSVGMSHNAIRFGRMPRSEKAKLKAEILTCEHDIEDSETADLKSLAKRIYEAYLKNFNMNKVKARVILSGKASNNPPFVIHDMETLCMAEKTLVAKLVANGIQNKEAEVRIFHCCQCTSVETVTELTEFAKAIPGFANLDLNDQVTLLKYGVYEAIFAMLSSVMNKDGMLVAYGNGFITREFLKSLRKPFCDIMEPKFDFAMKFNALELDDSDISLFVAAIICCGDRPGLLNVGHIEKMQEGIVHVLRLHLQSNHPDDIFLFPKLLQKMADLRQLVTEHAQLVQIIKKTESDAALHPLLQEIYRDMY

[3] = target: T3, Peroxisome proliferator-activated receptor gamma (Homo sapiens, UniProt P37231); assay: Agonist activity at PPAR-gamma (unknown origin) expressed in CV-1 cells co-transfected with tk-PPRE-luciferase vector after 24 hrs by transactivation assay; assay type: cell-based
T3 sequence (P37231 whole entry): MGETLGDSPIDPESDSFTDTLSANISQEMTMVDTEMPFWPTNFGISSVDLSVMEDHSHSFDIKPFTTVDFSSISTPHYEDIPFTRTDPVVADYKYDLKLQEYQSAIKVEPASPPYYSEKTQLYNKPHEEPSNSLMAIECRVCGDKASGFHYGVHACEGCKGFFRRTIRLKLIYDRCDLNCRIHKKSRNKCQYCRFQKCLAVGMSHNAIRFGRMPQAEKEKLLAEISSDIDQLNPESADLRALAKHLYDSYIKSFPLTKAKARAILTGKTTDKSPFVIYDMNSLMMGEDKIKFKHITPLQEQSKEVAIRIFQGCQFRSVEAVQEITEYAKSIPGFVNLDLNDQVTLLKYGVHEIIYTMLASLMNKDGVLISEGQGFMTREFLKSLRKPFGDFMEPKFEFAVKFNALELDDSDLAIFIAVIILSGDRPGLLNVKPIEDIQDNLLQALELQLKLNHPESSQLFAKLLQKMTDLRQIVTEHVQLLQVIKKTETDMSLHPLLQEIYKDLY

Liver microsome [4] = assay: Metabolic stability in human liver microsomes at 1 uM after 30 mins measured under phase 2 reaction by LC/MS/MS analysis; assay type: ADME; details: 0.5 h
[5] = Retention time of the compound by HPLC analysis; assay type: physicochemical
[6] = Metabolic stability in mouse liver microsomes at 1 uM after 30 mins measured under phase 2 reaction by LC/MS/MS analysis; assay type: ADME; details: 0.5 h
[7] = target: T4, Peroxisome proliferator-activated receptor alpha (Homo sapiens) (UniProt Q07869); assay: Agonist activity at PPAR-alpha (unknown origin) expressed in CV-1 cells co-transfected with tk-PPRE-luciferase vector at 10 uM after 24 hrs by transactivation assay relative to GW7647; assay type: cell-based
T4 sequence (whole entry): T2 sequence (Q07869 whole entry)

Liver microsome [8] = assay: Metabolic stability in human liver microsomes at 1 uM after 30 mins measured under phase 1 reaction by LC/MS/MS analysis; assay type: ADME; details: 0.5 h
[9] = target: T5, Peroxisome proliferator-activated receptor gamma (Homo sapiens) (UniProt P37231); assay: Agonist activity at PPAR-gamma (unknown origin) expressed in CV-1 cells co-transfected with tk-PPRE-luciferase vector at 10 uM after 24 hrs by transactivation assay relative to rosiglitazone; assay type: cell-based
T5 sequence (whole entry): T3 sequence (P37231 whole entry)

[10] = Metabolic stability in mouse liver microsomes at 1 uM after 30 mins measured under phase 1 reaction by LC/MS/MS analysis; assay type: ADME; details: 0.5 h
[11] = target: T6, Peroxisome proliferator-activated receptor delta (Homo sapiens) (UniProt Q03181); assay: Agonist activity at PPAR-delta (unknown origin) expressed in HEK293t cells co-transfected with tk-PPRE-luciferase vector at 10 uM after 24 hrs by transactivation assay relative to GW0742; assay type: cell-based; details: HEK-293T
T6 sequence (whole entry): T1 sequence (Q03181 whole entry)

Mus musculus [12] = assay: Increase in triglyceride content in C57BLKS/J-Lepr/Lepr db/db mouse liver at 10 mg/kg, po administered via gavage by hematoxylin-eosin staining; assay type: functional
Mus musculus [13] = assay: Decrease in fasting blood glucose level in C57BLKS/J-Lepr/Lepr db/db mouse at 10 mg/kg, po qd for 18 days administered via gavage by ELISA; assay type: functional, organism-based
Mus musculus [14] = assay: Increase in body weight in C57BLKS/J-Lepr/Lepr db/db mouse at 10 mg/kg, po qd for 18 days administered via gavage measured on day 16 relative to untreated control; assay type: ADME, organism-based; details: in vivo, 432 h
Mus musculus [15] = assay: Decrease in serum insulin level in C57BLKS/J-Lepr/Lepr db/db mouse at 10 mg/kg, po qd for 18 days administered via gavage by ELISA; assay type: functional, organism-based
Mus musculus [16] = assay: Decrease in serum Hb1Ac level in C57BLKS/J-Lepr/Lepr db/db mouse at 10 mg/kg, po qd for 18 days administered via gavage by ELISA; assay type: functional, organism-based
Mus musculus [17] = assay: Decrease in serum Hb1Ac level in C57BLKS/J-Lepr/Lepr db/db mouse at 3 to 10 mg/kg, po qd for 18 days administered via gavage by ELISA; assay type: functional, organism-based
Mus musculus [18] = assay: Decrease in size of adipocytes in C57BLKS/J-Lepr/Lepr db/db mouse white adipose tissue at 10 mg/kg, po administered via gavage by hematoxylin-eosin staining relative to untreated control; assay type: functional
Mus musculus [19] = assay: Decrease in serum insulin level in C57BLKS/J-Lepr/Lepr db/db mouse at 3 to 10 mg/kg, po qd for 18 days administered via gavage by ELISA; assay type: functional, organism-based
Mus musculus [20] = assay: Decrease in fasting blood glucose level in C57BLKS/J-Lepr/Lepr db/db mouse at 3 to 10 mg/kg, po qd for 18 days administered via gavage by ELISA; assay type: functional, organism-based
Mus musculus [21] = assay: Effect on body weight in C57BLKS/J-Lepr/Lepr db/db mouse at 3 to 10 mg/kg, po qd for 18 days administered via gavage; assay type: ADME, organism-based; details: in vivo, 432 h
Mus musculus [22] = assay: Decrease in size of adipocytes in C57BLKS/J-Lepr/Lepr db/db mouse white adipose tissue at 10 mg/kg, po administered via gavage by hematoxylin-eosin staining relative to rosiglitazone-treated control; assay type: functional
Mus musculus [23] = assay: Decrease in triglyceride content in C57BLKS/J-Lepr/Lepr db/db mouse liver at 3 mg/kg, po administered via gavage by hematoxylin-eosin staining; assay type: functional

| Compound | EC50 [1] [µM] | Retention_time [5] [min] | Emax [7] [%] | Emax [9] [%] | Emax [11] [%] | further results |
| --- | --- | --- | --- | --- | --- | --- |
| Cc1ccc(COc2cccc(OCCCOc3ccc4c(CC(=O)O)cn(Cc5ccccc5)c4c3)c2)cc1 | 9.4 | 18.125 | 26.5 | 130 | 90.2 | EC50 [2]: 19.2 µM; EC50 [3]: 1.3 µM; Stability (Liver microsome [4]): Stable; Stability [6]: Stable; Stability (Liver microsome [8]): Stable; Stability [10]: Stable |
| O=C(O)Cc1cn(Cc2ccc(F)cc2)c2ccc(OCCCOc3cccc(OCc4ccc(Cl)cc4)c3)cc12 | 0.75 | 23.205 | 34.3 | 92.7 | 133 | – |
| COc1ccc(COc2cccc(OCCOc3ccc4c(c3)c(CC(=O)O)cn4Cc3ccccc3)c2)cc1 | 6.3 | 10.127 | 25.8 | 90.9 | 122 | EC50 [2]: 5.9 µM; EC50 [3]: 1.9 µM; Stability (Liver microsome [8]): Unstable; Stability [10]: Stable |
| O=C(O)Cc1c[nH]c2ccc(OCCCOc3cccc(OCc4ccc(F)cc4)c3)cc12 | – | 7.106 | 25.8 | 66.9 | 32 | – |
| COc1ccc(COc2cccc(OCCOc3ccc4[nH]cc(CC(=O)O)c4c3)c2)cc1 | – | 5.651 | 87.5 | 93.4 | 70 | – |
| O=C(O)Cc1c[nH]c2ccc(OCCCOc3cccc(OCc4ccccc4)c3)cc12 | – | 6.379 | 22.6 | 73.1 | 21.7 | – |
| O=C(O)Cc1c[nH]c2ccc(OCCCOc3ccc(OCc4ccc(Cl)cc4)cc3)cc12 | – | 9.166 | 18.9 | 99.4 | 89.5 | – |
| O=C(O)Cc1c[nH]c2ccc(OCCOc3cccc(OCc4ccc(C(F)(F)F)cc4)c3)cc12 | – | 7.193 | 43 | 103 | 83 | – |
| O=C(O)Cc1c[nH]c2ccc(OCCCOc3cccc(OCc4ccc(C(F)(F)F)cc4)c3)cc12 | – | 9.707 | 28.2 | 100 | 71.9 | – |
| O=C(O)Cc1cn(Cc2ccccc2)c2ccc(OCCOc3cccc(OCc4ccc(C(F)(F)F)cc4)c3)cc12 | – | 18.375 | 23.4 | 85.7 | 73.9 | – |
| CN(CCOc1ccc(CC2SC(=O)NC2=O)cc1)c1ccccn1 (stereo not drawn) [ROSIGLITAZONE] | – | – | – | – | – | Activity (Mus musculus [12]): 22%; inhibition (Mus musculus [13]): Active; increase (Mus musculus [14]): 10%; inhibition (Mus musculus [15]): Active; inhibition (Mus musculus [16]): Active |
| Cc1ccc(COc2cccc(OCCCOc3ccc4[nH]cc(CC(=O)O)c4c3)c2)cc1 | 7.2 | 8.984 | 69.3 | 134 | 84.1 | EC50 [2]: 13.8 µM; EC50 [3]: 1.7 µM; Stability (Liver microsome [8]): Stable; Stability [10]: Stable |
| O=C(O)Cc1c[nH]c2ccc(OCCCOc3cccc(OCc4ccc(Cl)cc4)c3)cc12 | – | 9.64 | 56.7 | 104 | 63.7 | – |
| O=C(O)Cc1cn(Cc2ccccc2)c2ccc(OCCCOc3cccc(OCc4ccc(Cl)cc4)c3)cc12 | 2.2 | 24.111 | 31.2 | 100 | 82 | EC50 [2]: 8.6 µM; EC50 [3]: 0.5 µM; Stability (Liver microsome [4]): Stable; inhibition (Mus musculus [17]): Active; inhibition in vivo at 10 mg/kg (Mus musculus [18]): 18%; Stability [6]: Stable; inhibition (Mus musculus [19]): Active; inhibition (Mus musculus [20]): Active; Stability (Liver microsome [8]): Stable; Stability [10]: Stable; Activity (Mus musculus [21]): Non-toxic; inhibition in vivo at 10 mg/kg (Mus musculus [22]): 36%; inhibition in vivo at 3 mg/kg (Mus musculus [23]): 24% |
| O=C(O)Cc1c[nH]c2cc(OCCCOc3cccc(OCc4ccc(Cl)cc4)c3)ccc12 | – | 8.836 | 33 | 81.8 | 32.8 | – |
